Data published in US6100256A, “Use of NK-1 receptors antagonists for treating schizophrenic disorders” (priority 1996, dated 2000).
Like-named read-outs stand apart in the source and are kept apart here.

Biological target: T1, NK-1 receptor (Meriones unguiculatus, UniProt Q5DUB1)
T1 construct: from tissue; host or cells: central nervous system of living Mongolian gerbils (in vivo, agonist infused i.c.v.)
Assay: Gerbil foot-tapping induced by central NK-1 receptor agonist (GR73632)
Assay type: in vivo, Mongolian gerbils
Settings: iv
Text: Assay 2: Gerbil Foot-Tapping
CNS-penetrant NK-1 receptor antagonists for use in the present invention can be identified by their ability to inhibit foot tapping in gerbils induced by anxiogenic agents (such as pentagastrin) or central infusion of NK-1 receptor agonists such as GR73632, or caused by aversive stimulation such as foot shock or single housing, based on the method of Rupniak & Williams, Eur. J. Pharmacol., 1994, 265, 179.
Male or female Mongolian gerbils (35-70 g) are anaesthetised by inhalation of an isoflurane/oxygen mixture to permit exposure of the jugular vein in order to permit administration of test compounds or vehicle in an injection volume of 5 ml/kg i.v. Alternatively, test compounds may be administered orally or by subcutaneous or intraperitoneal routes. A skin incision is then made in the midline of the scalp to expose the skull. […]

T1 sequence (Q5DUB1 whole entry, the tested form may be a part): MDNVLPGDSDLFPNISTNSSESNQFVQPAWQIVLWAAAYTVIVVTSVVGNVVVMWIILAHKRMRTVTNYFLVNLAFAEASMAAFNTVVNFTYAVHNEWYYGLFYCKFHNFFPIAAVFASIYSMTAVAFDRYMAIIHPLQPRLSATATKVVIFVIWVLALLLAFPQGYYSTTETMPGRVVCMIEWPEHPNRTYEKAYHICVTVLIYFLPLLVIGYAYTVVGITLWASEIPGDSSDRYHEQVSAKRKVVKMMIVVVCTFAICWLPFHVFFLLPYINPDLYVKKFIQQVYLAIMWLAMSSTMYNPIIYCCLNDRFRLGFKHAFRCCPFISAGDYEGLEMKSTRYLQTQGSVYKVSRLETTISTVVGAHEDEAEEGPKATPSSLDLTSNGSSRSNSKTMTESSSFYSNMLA

Question: Which ED50 (5 min, i.v., 5 mins., administered immediately prior to central NK1 agonist challenge, read-out: gerbil foot-tapping (5 mins.): ID50) does the source give for `OC[C@@H](O[C@H]1OCCN(Cc2nc[nH]n2)[C@H]1c1ccc(F)cc1)c1cc(C(F)(F)F)cc(C(F)(F)F)c1` [2-(R)-(1-(S)-(3,5-bis(trifluoromethyl)phenyl)-2-hydroxyethoxy)-3-(S)-(4-fluorophenyl)-4-(1,2,4-triazol-3-yl)methylmorpholine] here?
Answer: 0.38 mg/kg

Question: What about the ED50 (24 hrs. prior to central NK1 agonist challenge, read-out: gerbil foot-tapping (24 hrs.): ID50) of the same compound?
Answer: 2.2 mg/kg
